Test results published in BindingDB's records for patent US11725000 (National Institute of Biological Sciences, Beijing, 2023).

Each compound was assayed against T1, Succinate dehydrogenase [ubiquinone] iron-sulfur subunit, mitochondrial (Homo sapiens, UniProt P21912) (assay: Apoptosis Inhibition Assay).
T1 sequence (P21912 whole entry): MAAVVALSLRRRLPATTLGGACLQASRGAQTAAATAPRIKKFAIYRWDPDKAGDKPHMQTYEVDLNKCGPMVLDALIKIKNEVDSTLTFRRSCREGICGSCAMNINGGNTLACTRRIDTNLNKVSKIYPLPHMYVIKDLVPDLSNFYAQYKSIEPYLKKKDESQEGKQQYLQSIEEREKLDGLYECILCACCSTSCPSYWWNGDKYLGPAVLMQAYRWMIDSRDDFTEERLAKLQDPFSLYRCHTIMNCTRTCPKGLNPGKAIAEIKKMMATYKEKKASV
Excerpt: In order to identify the target protein of tTC09 apoptosis inhibitors, we synthesized two sets of probes for target identification based on the SAR study. The first set of probes was designed for direct activity based protein profiling (ABPP) with biotin tag linked at different site. […] TC09 apoptosis inhibitors could stabilize the mitochondrial respiratory chain after Bim/tBid overexpression and help maintain the normal function of mitochondria. A second set of probes with a terminal alkyne group designed for click-reaction-assisted ABPP were also prepared.

| SMILES | EC50 |
| --- | --- |
| CCC[S+]([O-])c1nc(-c2cccs2)cc(C(F)(F)F)n1 (stereo not given) [US11725000, Compound 5] | 1170 nM |
| [O-][S+](CC1CC1)c1nc(-c2cccs2)cc(C(F)(F)F)n1 (stereo not given) [US11725000, Compound 10] | 2200 nM |
| [O-][S+](Cc1ccccc1)c1nc(-c2cccs2)cc(C(F)(F)F)n1 (stereo not given) [US11725000, Compound 12] | 3490 nM |
| N#Cc1ccccc1C[S+]([O-])c1nc(-c2cccs2)cc(C(F)(F)F)n1 (stereo not given) [US11725000, Compound 14] | 7030 nM |
| N#Cc1cccc(C[S+]([O-])c2nc(-c3cccs3)cc(C(F)(F)F)n2)c1 (stereo not given) [US11725000, Compound 15] | 3520 nM |
| [O-][S+](Cc1ccc(-c2ccccc2)cc1)c1nc(-c2cccs2)cc(C(F)(F)F)n1 (stereo not given) [US11725000, Compound 20] | 257 nM |
| [O-][S+](Cc1ccc2ncccc2c1)c1nc(-c2cccs2)cc(C(F)(F)F)n1 (stereo not given) [US11725000, Compound 24] | 110 nM |
| O=C1CCCN1CC[S+]([O-])c1nc(-c2cccs2)cc(C(F)(F)F)n1 (stereo not given) [US11725000, Compound 25] | 69 nM |
| [O-][S+](CCc1ccccc1)c1nc(-c2cccs2)cc(C(F)(F)F)n1 (stereo not given) [US11725000, Compound 27] | 13 nM |
| O=C(O)CC[S+]([O-])c1nc(-c2cccs2)cc(C(F)(F)F)n1 (stereo not given) [US11725000, Compound 28] | 499 nM |
| CCOC(=O)CC[S+]([O-])c1nc(-c2cccs2)cc(C(F)(F)F)n1 (stereo not given) [US11725000, Compound 30] | 4880 nM |
| COC(=O)CCC[S+]([O-])c1nc(-c2cccs2)cc(C(F)(F)F)n1 (stereo not given) [US11725000, Compound 32] | 64 nM |
| C[S+]([O-])c1nc(Cl)cc(-c2cccs2)n1 (stereo not given) [US11725000, Compound 33] | 4480 nM |
| Cc1cc(-c2cccs2)nc(S(C)(=O)=O)n1 [US11725000, Compound 34] | 817 nM |
| C#Cc1cc(-c2cccs2)nc(S(C)(=O)=O)n1 [US11725000, Compound 35] | 995 nM |

The remaining lines, values ahead:

| EC50 | SMILES |
| --- | --- |
| 1000 to 10000 nM | CS(=O)(=O)c1nc(-c2cccs2)cc(C(F)(F)F)n1 [US11725000, Compound 1] |
| 4210 nM | CCCS(=O)(=O)c1nc(-c2cccs2)cc(C(F)(F)F)n1 [US11725000, Compound 4] |
| 6640 nM | O=S(=O)(Cc1ccccc1)c1nc(-c2cccs2)cc(C(F)(F)F)n1 [US11725000, Compound 11] |
| 6350 nM | N#Cc1ccccc1CS(=O)(=O)c1nc(-c2cccs2)cc(C(F)(F)F)n1 [US11725000, Compound 13] |
| 1160 nM | O=S(=O)(Cc1cc(F)cc(F)c1)c1nc(-c2cccs2)cc(C(F)(F)F)n1 [US11725000, Compound 18] |
| 1140 nM | [O-][S+](Cc1cc(F)cc(F)c1)c1nc(-c2cccs2)cc(C(F)(F)F)n1 (stereo not given) [US11725000, Compound 19] |
| 1410 nM | O=S(=O)(Cc1ccc([N+]2([O-])CCOCC2)cc1)c1nc(-c2cccs2)cc(C(F)(F)F)n1 [US11725000, Compound 22] |
| 57 nM | O=S(=O)(Cc1ccc2c(ccc[n+]2[O-])c1)c1nc(-c2cccs2)cc(C(F)(F)F)n1 [US11725000, Compound 23] |
| 94 nM | O=S(=O)(CCc1ccccc1)c1nc(-c2cccs2)cc(C(F)(F)F)n1 [US11725000, Compound 26] |
| 104 nM | CCOC(=O)CCS(=O)(=O)c1nc(-c2cccs2)cc(C(F)(F)F)n1 [US11725000, Compound 29] |
